# ChEMBL document CHEMBL4507261, “Data for DCP probe A-192621” (2021)
# Key:
# [1] = target: Prostaglandin G/H synthase 1 (Homo sapiens) (UniProt P23219); experiment: COX1(h) Eurofins-Cerep enzyme and uptake assay; settings: Compound concentration 10.0 uM
# [2] = target: cGMP-inhibited 3',5'-cyclic phosphodiesterase 3A (Homo sapiens) (UniProt Q14432); experiment: PDE3A (h) Eurofins-Cerep enzyme and uptake assay; settings: Compound concentration 10.0 uM
# [3] = target: Tumor necrosis factor (Homo sapiens) (UniProt P01375); experiment: TNF-alpha (h) Eurofins-Cerep binding assay; settings: filed as agonist, Compound concentration 10.0 uM
# [4] = target: Histamine H1 receptor (Homo sapiens) (UniProt P35367); experiment: H1 (h) Eurofins-Cerep binding assay; parameters: ligand concentration 1 nM; settings: filed as antagonist, Compound concentration 10.0 uM
# [5] = target: Muscarinic acetylcholine receptor M1 (Homo sapiens) (UniProt P11229); experiment: M1 (h) Eurofins-Cerep binding assay; parameters: ligand concentration 2 nM; settings: filed as antagonist, Compound concentration 10.0 uM
# [6] = target: Sodium- and chloride-dependent GABA transporter 1 (Rattus norvegicus) (UniProt P23978); experiment: GABA transporter Eurofins-Cerep binding assay; parameters: ligand concentration 10 nM; settings: filed as antagonist, Compound concentration 10.0 uM
# [7] = target: Tyrosine-protein kinase ABL2 (Homo sapiens) (UniProt P42684); settings: Compound concentration 1000.0 nM
# [8] = target: Activin receptor type-1-like (Homo sapiens) (UniProt P37023); settings: Compound concentration 1000.0 nM
# [9] = target: Bone morphogenetic protein receptor type-1B (Homo sapiens) (UniProt O00238); settings: Compound concentration 1000.0 nM
# [10] = target: Serine/threonine-protein kinase BRSK2 (Homo sapiens) (UniProt Q8IWQ3); settings: Compound concentration 1000.0 nM
# [11] = target: Cyclin-dependent kinase 7 (Homo sapiens) (UniProt P50613); settings: Compound concentration 1000.0 nM
# [12] = target: Dual specificity protein kinase CLK1 (Homo sapiens) (UniProt P49759); settings: Compound concentration 1000.0 nM
# [13] = target: Ephrin type-A receptor 3 (Homo sapiens) (UniProt P29320); settings: Compound concentration 1000.0 nM
# [14] = target: Mitogen-activated protein kinase 3 (Homo sapiens) (UniProt P27361); settings: Compound concentration 1000.0 nM
# [15] = target: Inhibitor of nuclear factor kappa-B kinase subunit beta (Homo sapiens) (UniProt O14920); settings: Compound concentration 1000.0 nM
# [16] = target: Inhibitor of nuclear factor kappa-B kinase subunit epsilon (Homo sapiens) (UniProt Q14164); settings: Compound concentration 1000.0 nM
# [17] = target: Tyrosine-protein kinase JAK2 (Homo sapiens) (UniProt O60674); settings: Compound concentration 1000.0 nM
# [18] = target: Mitogen-activated protein kinase 9 (Homo sapiens) (UniProt P45984); settings: Compound concentration 1000.0 nM
# [19] = system: Mast/stem cell growth factor receptor Kit (Homo sapiens), P10721 [V559D,T670I]; settings: Compound concentration 1000.0 nM
# [20] = target: Leukocyte tyrosine kinase receptor (Homo sapiens) (UniProt P29376); settings: Compound concentration 1000.0 nM
# [21] = target: Mitogen-activated protein kinase kinase kinase 1 (Homo sapiens) (UniProt Q13233); settings: Compound concentration 1000.0 nM
# [22] = target: Mitogen-activated protein kinase kinase kinase 9 (Homo sapiens) (UniProt P80192); settings: Compound concentration 1000.0 nM
# [23] = target: Serine/threonine-protein kinase NIM1 (Homo sapiens) (UniProt Q8IY84); settings: Compound concentration 1000.0 nM
# [24] = target: Mitogen-activated protein kinase 14 (Homo sapiens) (UniProt Q16539); settings: Compound concentration 1000.0 nM
# [25] = target: Platelet-derived growth factor receptor beta (Homo sapiens) (UniProt P09619); settings: Compound concentration 1000.0 nM
# [26] = target: Phosphatidylinositol 4-phosphate 3-kinase C2 domain-containing subunit beta (Homo sapiens) (UniProt O00750); settings: Compound concentration 1000.0 nM
# [27] = system: Phosphatidylinositol 4,5-bisphosphate 3-kinase catalytic subunit alpha isoform (Homo sapiens), P42336 [C420R]; settings: Compound concentration 1000.0 nM
# [28] = system: Phosphatidylinositol 4,5-bisphosphate 3-kinase catalytic subunit alpha isoform (Homo sapiens), P42336 [M1043I]; settings: Compound concentration 1000.0 nM
# [29] = target: Serine/threonine-protein kinase pim-2 (Homo sapiens) (UniProt Q9P1W9); settings: Compound concentration 1000.0 nM
# [30] = target: Phosphatidylinositol 5-phosphate 4-kinase type-2 beta (Homo sapiens) (UniProt P78356); settings: Compound concentration 1000.0 nM
# [31] = target: cGMP-dependent protein kinase 1 (Homo sapiens) (UniProt Q13976); settings: Compound concentration 1000.0 nM
# [32] = system: Proto-oncogene tyrosine-protein kinase receptor Ret (Homo sapiens), P07949 [M918T]; settings: Compound concentration 1000.0 nM
# [33] = target: Rho-associated protein kinase 1 (Homo sapiens) (UniProt Q13464); settings: Compound concentration 1000.0 nM
# [34] = target: Ribosomal protein S6 kinase alpha-4 (Homo sapiens) (UniProt O75676); settings: Compound concentration 1000.0 nM
# [35] = target: Ribosomal protein S6 kinase alpha-5 (Homo sapiens) (UniProt O75582); settings: Compound concentration 1000.0 nM
# [36] = target: Ribosomal protein S6 kinase alpha-5 (Homo sapiens) (UniProt O75582); settings: Compound concentration 1000.0 nM; remark: listed apart in the source
# [37] = target: Ribosomal protein S6 kinase alpha-6 (Homo sapiens) (UniProt Q9UK32); settings: Compound concentration 1000.0 nM
# [38] = target: Serine/threonine-protein kinase Sgk2 (Homo sapiens) (UniProt Q9HBY8); settings: Compound concentration 1000.0 nM
# [39] = target: Serine/threonine-protein kinase Sgk3 (Homo sapiens) (UniProt Q96BR1); settings: Compound concentration 1000.0 nM
# [40] = target: Serine/threonine-protein kinase 16 (Homo sapiens) (UniProt O75716); settings: Compound concentration 1000.0 nM
# [41] = target: Tyrosine-protein kinase SYK (Homo sapiens) (UniProt P43405); settings: Compound concentration 1000.0 nM
# [42] = target: Tyrosine-protein kinase receptor TYRO3 (Homo sapiens) (UniProt Q06418); settings: Compound concentration 1000.0 nM
# [43] = target: Serine/threonine-protein kinase 32B (Homo sapiens) (UniProt Q9NY57); settings: Compound concentration 1000.0 nM
# Sequence of Ribosomal protein S6 kinase alpha-5 (Homo sapiens) (O75582 whole entry, looked up): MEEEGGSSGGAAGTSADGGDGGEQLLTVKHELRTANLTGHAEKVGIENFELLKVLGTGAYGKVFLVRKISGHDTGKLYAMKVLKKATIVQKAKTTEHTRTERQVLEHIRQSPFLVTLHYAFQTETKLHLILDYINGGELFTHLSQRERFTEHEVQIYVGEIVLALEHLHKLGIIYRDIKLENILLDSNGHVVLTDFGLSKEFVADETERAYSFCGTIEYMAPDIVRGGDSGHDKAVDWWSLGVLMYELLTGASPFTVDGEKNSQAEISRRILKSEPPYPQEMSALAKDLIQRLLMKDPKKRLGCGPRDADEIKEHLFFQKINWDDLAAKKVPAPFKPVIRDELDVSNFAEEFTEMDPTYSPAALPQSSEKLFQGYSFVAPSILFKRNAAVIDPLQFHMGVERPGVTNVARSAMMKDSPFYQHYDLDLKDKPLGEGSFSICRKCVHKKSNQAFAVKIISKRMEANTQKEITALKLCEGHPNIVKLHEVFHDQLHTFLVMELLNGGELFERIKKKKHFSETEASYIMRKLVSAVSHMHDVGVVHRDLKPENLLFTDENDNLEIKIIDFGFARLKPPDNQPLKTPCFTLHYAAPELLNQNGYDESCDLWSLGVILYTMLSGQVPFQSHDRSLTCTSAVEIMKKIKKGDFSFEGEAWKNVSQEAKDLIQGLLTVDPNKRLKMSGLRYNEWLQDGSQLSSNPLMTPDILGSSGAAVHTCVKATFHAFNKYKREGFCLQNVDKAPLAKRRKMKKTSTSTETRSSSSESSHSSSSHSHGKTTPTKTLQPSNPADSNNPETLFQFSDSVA
# Sequence of Serine/threonine-protein kinase NIM1 (Homo sapiens) (Q8IY84 whole entry): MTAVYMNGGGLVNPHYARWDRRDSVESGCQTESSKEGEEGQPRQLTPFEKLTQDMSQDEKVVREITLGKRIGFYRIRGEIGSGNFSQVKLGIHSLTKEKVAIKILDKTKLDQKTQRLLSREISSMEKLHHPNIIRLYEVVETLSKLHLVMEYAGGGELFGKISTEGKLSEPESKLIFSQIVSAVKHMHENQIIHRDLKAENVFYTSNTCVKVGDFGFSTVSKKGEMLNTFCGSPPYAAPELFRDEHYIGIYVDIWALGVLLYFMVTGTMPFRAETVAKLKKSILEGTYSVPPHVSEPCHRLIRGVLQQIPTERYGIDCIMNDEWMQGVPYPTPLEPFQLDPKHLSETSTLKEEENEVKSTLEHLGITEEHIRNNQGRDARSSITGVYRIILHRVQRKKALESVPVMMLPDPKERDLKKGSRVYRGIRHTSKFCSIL
# Sequence of Tyrosine-protein kinase receptor TYRO3 (Homo sapiens) (Q06418 whole entry): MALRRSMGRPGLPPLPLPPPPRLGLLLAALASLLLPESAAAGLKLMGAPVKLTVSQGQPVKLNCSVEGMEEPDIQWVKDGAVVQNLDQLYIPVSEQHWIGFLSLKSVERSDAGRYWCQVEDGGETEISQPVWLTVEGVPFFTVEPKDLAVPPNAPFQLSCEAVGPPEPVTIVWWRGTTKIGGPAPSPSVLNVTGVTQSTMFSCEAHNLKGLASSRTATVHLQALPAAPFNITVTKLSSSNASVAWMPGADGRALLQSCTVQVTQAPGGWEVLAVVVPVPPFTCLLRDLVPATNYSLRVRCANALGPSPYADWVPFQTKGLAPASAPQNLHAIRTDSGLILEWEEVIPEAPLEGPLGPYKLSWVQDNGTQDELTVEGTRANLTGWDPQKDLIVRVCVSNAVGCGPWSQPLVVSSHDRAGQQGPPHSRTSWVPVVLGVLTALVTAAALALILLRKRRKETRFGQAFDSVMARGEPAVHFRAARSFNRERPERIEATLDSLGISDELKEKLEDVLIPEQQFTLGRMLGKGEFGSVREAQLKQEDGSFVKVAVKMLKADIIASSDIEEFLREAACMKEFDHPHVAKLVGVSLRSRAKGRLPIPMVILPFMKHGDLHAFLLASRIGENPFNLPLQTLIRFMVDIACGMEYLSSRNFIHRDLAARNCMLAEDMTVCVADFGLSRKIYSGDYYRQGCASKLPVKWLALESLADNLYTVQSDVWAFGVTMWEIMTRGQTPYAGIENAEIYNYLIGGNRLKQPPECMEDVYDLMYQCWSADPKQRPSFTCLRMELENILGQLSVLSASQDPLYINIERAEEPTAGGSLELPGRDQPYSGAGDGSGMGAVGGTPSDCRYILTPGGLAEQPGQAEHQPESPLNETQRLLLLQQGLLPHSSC
# Sequence of Muscarinic acetylcholine receptor M1 (Homo sapiens) (P11229 whole entry): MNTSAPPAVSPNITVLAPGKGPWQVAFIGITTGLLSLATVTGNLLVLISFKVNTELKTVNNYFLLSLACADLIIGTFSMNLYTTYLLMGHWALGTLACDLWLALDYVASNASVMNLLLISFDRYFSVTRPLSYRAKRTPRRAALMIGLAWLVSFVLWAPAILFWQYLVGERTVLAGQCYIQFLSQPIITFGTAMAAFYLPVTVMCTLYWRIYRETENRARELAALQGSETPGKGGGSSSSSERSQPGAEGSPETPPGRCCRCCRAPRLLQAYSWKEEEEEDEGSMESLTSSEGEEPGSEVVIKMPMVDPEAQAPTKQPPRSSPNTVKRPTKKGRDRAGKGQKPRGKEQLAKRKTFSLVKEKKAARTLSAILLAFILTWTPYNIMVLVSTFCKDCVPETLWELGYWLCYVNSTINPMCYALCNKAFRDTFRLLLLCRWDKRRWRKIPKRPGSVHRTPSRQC
# Sequence of Proto-oncogene tyrosine-protein kinase receptor Ret (Homo sapiens), P07949 [M918T] (P07949 whole entry M918T): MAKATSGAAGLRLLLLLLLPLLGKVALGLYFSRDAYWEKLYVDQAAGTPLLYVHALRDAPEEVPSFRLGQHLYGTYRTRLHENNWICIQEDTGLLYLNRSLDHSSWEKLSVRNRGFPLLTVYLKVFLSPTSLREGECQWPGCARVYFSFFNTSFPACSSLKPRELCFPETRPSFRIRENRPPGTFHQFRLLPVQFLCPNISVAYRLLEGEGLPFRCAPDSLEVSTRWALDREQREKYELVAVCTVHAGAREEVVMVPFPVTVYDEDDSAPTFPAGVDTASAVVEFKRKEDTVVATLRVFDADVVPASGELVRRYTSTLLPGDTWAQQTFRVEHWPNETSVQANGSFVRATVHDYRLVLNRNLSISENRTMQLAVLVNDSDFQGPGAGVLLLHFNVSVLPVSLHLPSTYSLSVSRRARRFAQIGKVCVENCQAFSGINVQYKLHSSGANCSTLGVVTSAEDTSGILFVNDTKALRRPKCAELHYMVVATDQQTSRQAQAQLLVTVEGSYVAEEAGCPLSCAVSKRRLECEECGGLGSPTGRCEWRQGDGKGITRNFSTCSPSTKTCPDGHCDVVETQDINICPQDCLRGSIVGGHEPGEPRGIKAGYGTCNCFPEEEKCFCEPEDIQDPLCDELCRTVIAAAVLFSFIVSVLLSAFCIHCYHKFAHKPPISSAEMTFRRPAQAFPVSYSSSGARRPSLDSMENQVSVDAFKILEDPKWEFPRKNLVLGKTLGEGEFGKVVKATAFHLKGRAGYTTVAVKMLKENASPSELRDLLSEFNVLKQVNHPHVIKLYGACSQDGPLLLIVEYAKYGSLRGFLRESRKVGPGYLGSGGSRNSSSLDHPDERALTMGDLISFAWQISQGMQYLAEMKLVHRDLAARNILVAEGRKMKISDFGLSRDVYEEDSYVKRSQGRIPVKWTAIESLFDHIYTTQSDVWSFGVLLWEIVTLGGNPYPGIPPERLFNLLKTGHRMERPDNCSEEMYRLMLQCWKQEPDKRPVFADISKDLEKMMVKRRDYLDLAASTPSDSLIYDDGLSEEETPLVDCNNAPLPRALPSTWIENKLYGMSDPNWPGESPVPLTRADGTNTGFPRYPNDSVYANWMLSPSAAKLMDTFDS
# Sequence of Serine/threonine-protein kinase Sgk2 (Homo sapiens) (Q9HBY8 whole entry): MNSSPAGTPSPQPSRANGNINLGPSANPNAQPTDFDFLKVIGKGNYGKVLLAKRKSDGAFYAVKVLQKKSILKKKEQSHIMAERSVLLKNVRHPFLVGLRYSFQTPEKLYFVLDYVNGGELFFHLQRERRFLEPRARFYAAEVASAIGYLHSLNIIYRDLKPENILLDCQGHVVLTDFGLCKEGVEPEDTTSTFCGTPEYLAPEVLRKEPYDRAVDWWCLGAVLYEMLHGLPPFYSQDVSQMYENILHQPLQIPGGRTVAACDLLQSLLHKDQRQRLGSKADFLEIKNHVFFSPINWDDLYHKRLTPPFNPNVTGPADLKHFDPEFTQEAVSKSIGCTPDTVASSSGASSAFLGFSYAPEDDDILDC
# Sequence of Ephrin type-A receptor 3 (Homo sapiens) (P29320 whole entry): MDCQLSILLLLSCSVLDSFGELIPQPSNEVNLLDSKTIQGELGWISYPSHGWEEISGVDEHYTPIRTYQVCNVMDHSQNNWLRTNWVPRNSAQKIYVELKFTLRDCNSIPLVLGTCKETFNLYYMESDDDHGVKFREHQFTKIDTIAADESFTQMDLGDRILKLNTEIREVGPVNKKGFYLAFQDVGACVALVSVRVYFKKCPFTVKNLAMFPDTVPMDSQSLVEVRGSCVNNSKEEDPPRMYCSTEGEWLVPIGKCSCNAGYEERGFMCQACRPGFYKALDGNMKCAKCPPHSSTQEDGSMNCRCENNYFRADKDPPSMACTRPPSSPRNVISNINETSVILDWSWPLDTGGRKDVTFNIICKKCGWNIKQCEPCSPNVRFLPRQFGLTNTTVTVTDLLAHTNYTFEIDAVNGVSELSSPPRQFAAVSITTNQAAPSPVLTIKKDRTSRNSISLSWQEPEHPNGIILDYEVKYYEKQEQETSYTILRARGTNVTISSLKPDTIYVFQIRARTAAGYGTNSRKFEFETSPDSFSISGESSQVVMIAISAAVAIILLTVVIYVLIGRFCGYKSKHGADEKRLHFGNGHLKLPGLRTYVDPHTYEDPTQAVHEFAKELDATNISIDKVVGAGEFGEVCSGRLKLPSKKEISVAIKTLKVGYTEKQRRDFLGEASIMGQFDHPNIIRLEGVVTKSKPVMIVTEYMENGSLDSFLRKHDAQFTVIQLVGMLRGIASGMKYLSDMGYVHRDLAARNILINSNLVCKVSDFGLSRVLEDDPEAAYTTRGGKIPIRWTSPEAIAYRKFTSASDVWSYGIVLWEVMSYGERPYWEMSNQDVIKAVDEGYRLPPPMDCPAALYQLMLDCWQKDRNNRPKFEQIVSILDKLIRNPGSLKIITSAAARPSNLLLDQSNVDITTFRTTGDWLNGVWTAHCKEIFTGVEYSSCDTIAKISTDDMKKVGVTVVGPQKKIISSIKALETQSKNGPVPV
structure (smiles),measurement,setting,value
CCCOc1ccc([C@H]2[C@H](C(=O)O)[C@@H](c3ccc4c(c3)OCO4)CN2CC(=O)Nc2c(CC)cccc2CC)cc1 [A-192621],% Inhibition of Control Values (Mean n=2),[1],13.2%
same,% Inhibition of Control Values (Mean n=2),[2],29%
same,% Inhibition of Control Specific Binding (Mean n=2),[3],3.4%
same,% Inhibition of Control Specific Binding (Mean n=2),[4],-4.4%
same,% Inhibition of Control Specific Binding (Mean n=2),[5],-11.2%
same,% Inhibition of Control Specific Binding (Mean n=2),[6],-12%
same,residual activity,[7],100%
same,residual activity,[8],99%
same,residual activity,[9],61%
same,residual activity,[10],97%
same,residual activity,[11],78%
same,residual activity,[12],87%
same,residual activity,[13],86%
same,residual activity,[14],93%
same,residual activity,[15],77%
same,residual activity,[16],68%
same,residual activity,[17],53%
same,residual activity,[18],65%
same,residual activity,[19],87%
same,residual activity,[20],100%
same,residual activity,[21],71%
same,residual activity,[22],93%
same,residual activity,[23],78%
same,residual activity,[24],99%
same,residual activity,[25],100%
same,residual activity,[26],92%
same,residual activity,[27],95%
same,residual activity,[28],91%
same,residual activity,[29],91%
same,residual activity,[30],97%
same,residual activity,[31],88%
same,residual activity,[32],84%
same,residual activity,[33],65%
same,residual activity,[34],68%
same,residual activity,[35],98%
same,residual activity,[36],89%
same,residual activity,[37],78%
same,residual activity,[38],54%
same,residual activity,[39],63%
same,residual activity,[40],72%
same,residual activity,[41],100%
same,residual activity,[42],100%
same,residual activity,[43],100%
CCCOc1ccc([C@@H]2[C@@H](C(=O)O)[C@H](c3ccc4c(c3)OCO4)CN2CC(=O)Nc2c(CC)cccc2CC)cc1 [A-1806262],% Inhibition of Control Values (Mean n=2),[1],2.3%
same,% Inhibition of Control Values (Mean n=2),[2],34.5%
same,% Inhibition of Control Specific Binding (Mean n=2),[3],1.2%
same,% Inhibition of Control Specific Binding (Mean n=2),[4],-10%
same,% Inhibition of Control Specific Binding (Mean n=2),[5],3.7%
same,% Inhibition of Control Specific Binding (Mean n=2),[6],-17.3%
same,residual activity,[7],96%
same,residual activity,[8],100%
same,residual activity,[9],82%
same,residual activity,[10],100%
same,residual activity,[11],86%
same,residual activity,[12],93%
same,residual activity,[13],99%
same,residual activity,[14],93%
same,residual activity,[15],94%
same,residual activity,[16],85%
same,residual activity,[17],79%
same,residual activity,[18],80%
same,residual activity,[19],100%
same,residual activity,[20],100%
same,residual activity,[21],80%
same,residual activity,[22],93%
same,residual activity,[23],81%
same,residual activity,[24],100%
same,residual activity,[25],100%
same,residual activity,[26],94%
same,residual activity,[27],100%
same,residual activity,[28],91%
same,residual activity,[29],99%
same,residual activity,[30],80%
same,residual activity,[31],97%
same,residual activity,[32],97%
same,residual activity,[33],81%
same,residual activity,[34],90%
same,residual activity,[35],99%
same,residual activity,[36],97%
same,residual activity,[37],91%
same,residual activity,[38],69%
same,residual activity,[39],69%
same,residual activity,[40],87%
same,residual activity,[41],100%
same,residual activity,[42],94%
same,residual activity,[43],100%
